What all share (assay type): cell-based
Assay [1] has as its system splenocytes of HLA-A24 (A*2402) transgenic mice. On the set-up: key to A24: average IFN-γ spots forming cells per million splenocytes: — represents no positive ELISpot response.
Assay [2] concerns splenocytes of HLA-B7 (B*0702) transgenic mice. On the set-up: key to B7: average IFN-γ spots forming cells per million splenocytes: — represents no positive ELISpot response.
Assay [3] relates to splenocytes of HLA-DR2 (DRB1*1501) transgenic mice. On the set-up: key to DR2: average IFN-γ spots forming cells per million splenocytes: — represents no positive ELISpot response.
Assay [4] relates to splenocytes of HLA-DR3 (DRB1*0301) transgenic mice. On the set-up: key to DR3: average IFN-γ spots forming cells per million splenocytes: — represents no positive ELISpot response.
The test system of assay [5] is splenocytes of HLA-DR4 (DRB1*0401) transgenic mice. On the set-up: key: — represents no positive ELISpot response.

Turning to LLRHFQKDAKVLFLNWG, in assay [1], the “A24: average IFN-γ spots forming cells per million splenocytes” value is listed as “—”. Also, the “B7: average IFN-γ spots forming cells per million splenocytes” value in assay [2] is on record as “—”. Besides, the “DR2: average IFN-γ spots forming cells per million splenocytes” value (from here on “DR2 … per million splenocytes”) in assay [3] was “—”. Moreover, in assay [4], the “DR3: average IFN-γ spots forming cells per million splenocytes” value (“DR3 … per million splenocytes” below) was 444 ± 14(0.1) IFN-γ spots forming cells per million splenocytes and the “DR3: lowest concentration of peptide giving positive ELISpot response in peptide titration” value (shortened to “DR3: lowest concentration”) is 444 ± 14(0.1) μg/ml. Further, the “DR4: average IFN-γ spots forming cells per million splenocytes” value (“DR4 … per million splenocytes” for short) in assay [5] is “—”.

For EYDAVATTHSWVPKRNR, the “A24: average IFN-γ spots forming cells per million splenocytes” value in assay [1] is “—”. Moreover, the “B7: average IFN-γ spots forming cells per million splenocytes” value in assay [2] is given as “—”. Further, the “DR2 … per million splenocytes” value in assay [3] is recorded as “—”. In assay [4], the “DR3 … per million splenocytes” value is “—”. Also, the “DR4 … per million splenocytes” value in assay [5] is 59 ± 2(0.1) IFN-γ spots forming cells per million splenocytes.

As for SRPMFLYVRTNGTSKIK, in assay [1], the “A24: average IFN-γ spots forming cells per million splenocytes” value is “—”. Also, the “B7: average IFN-γ spots forming cells per million splenocytes” value in assay [2] is given as “—”. Also, the “DR2 … per million splenocytes” value in assay [3] was “—”. In addition, the “DR3 … per million splenocytes” value in assay [4] was “—”. The “DR4 … per million splenocytes” value in assay [5] was 114 ± 24(0.1) IFN-γ spots forming cells per million splenocytes.

Regarding TEKLTITYSSSMMWEIN, in assay [1], the “A24: average IFN-γ spots forming cells per million splenocytes” value is “—”. The “B7: average IFN-γ spots forming cells per million splenocytes” value in assay [2] is listed as “—”. For the same sequence, in assay [3], the “DR2 … per million splenocytes” value is 151 ± 67(0.1) IFN-γ spots forming cells per million splenocytes and the “DR2: lowest concentration of peptide giving positive ELISpot response in peptide titration” value (“DR2: lowest concentration” below) was 151 ± 67(0.1) μg/ml. Also, the “DR3 … per million splenocytes” value in assay [4] is “—”. Moreover, the “DR4 … per million splenocytes” value in assay [5] was “—”.

Consider RQTYDWTLNRNQPAATA, for which, in assay [1], the “A24: average IFN-γ spots forming cells per million splenocytes” value is recorded as “—”. Besides, the “B7: average IFN-γ spots forming cells per million splenocytes” value in assay [2] was “—”. For the same sequence, the “DR2 … per million splenocytes” value in assay [3] is “—”. In addition, in assay [4], the “DR3 … per million splenocytes” value is reported as 78 ± 0(0.1) IFN-γ spots forming cells per million splenocytes and the “DR3: lowest concentration” value is 78 ± 0(0.1) μg/ml. Also, the “DR4 … per million splenocytes” value in assay [5] is “—”.

Regarding KHGTFGPVHFRNQVKIR, the “A24: average IFN-γ spots forming cells per million splenocytes” value in assay [1] is recorded as “—”. Moreover, the “B7: average IFN-γ spots forming cells per million splenocytes” value in assay [2] is “—”. The “DR2 … per million splenocytes” value in assay [3] was “—”. Further, the “DR3 … per million splenocytes” value in assay [4] is “—”. The “DR4 … per million splenocytes” value in assay [5] is 316 ± 20(0.1) IFN-γ spots forming cells per million splenocytes.

With FFYRYGFVANFSMELPS, in assay [1], the “A24: average IFN-γ spots forming cells per million splenocytes” value was 210 ± 25 IFN-γ spots forming cells per million splenocytes and the “A24: lowest concentration of peptide giving positive ELISpot response in peptide titration” value (“A24: lowest concentration” for short) is reported as “(0.1) μg/ml”. In assay [2], the “B7: average IFN-γ spots forming cells per million splenocytes” value was “—”. Also, in assay [3], the “DR2 … per million splenocytes” value is recorded as “—”. Also, in assay [4], the “DR3 … per million splenocytes” value is recorded as “—”. Further, in assay [5], the “DR4 … per million splenocytes” value is “—”.

For the sequence RMQFSSLTVNVRGSGMR, in assay [1], the “A24: average IFN-γ spots forming cells per million splenocytes” value is recorded as “—”. In addition, the “B7: average IFN-γ spots forming cells per million splenocytes” value in assay [2] is listed as “—”. For the same sequence, in assay [3], the “DR2 … per million splenocytes” value was 104 ± 16(0.1) IFN-γ spots forming cells per million splenocytes and the “DR2: lowest concentration” value was 104 ± 16(0.1) μg/ml. Also, the “DR3 … per million splenocytes” value in assay [4] is given as “—”. Besides, the “DR4 … per million splenocytes” value in assay [5] is listed as “—”.

As for MGMIGILPDMTPSTEMS, in assay [1], the “A24: average IFN-γ spots forming cells per million splenocytes” value was “—”. The “B7: average IFN-γ spots forming cells per million splenocytes” value in assay [2] is on record as “—”. Further, in assay [3], the “DR2 … per million splenocytes” value is reported as “—”. Moreover, the “DR3 … per million splenocytes” value in assay [4] is listed as “—”. The “DR4 … per million splenocytes” value in assay [5] is 238 ± 5(0.1) IFN-γ spots forming cells per million splenocytes.

As to KRSYEQMETDGERQNAT, in assay [1], the “A24: average IFN-γ spots forming cells per million splenocytes” value is on record as “—”. Moreover, in assay [2], the “B7: average IFN-γ spots forming cells per million splenocytes” value is listed as “—”. The “DR2 … per million splenocytes” value in assay [3] was “—”. Also, the “DR3 … per million splenocytes” value in assay [4] was “—”. Besides, in assay [5], the “DR4 … per million splenocytes” value is 52 ± 29(0.1) IFN-γ spots forming cells per million splenocytes.

For the sequence IGVTVIKNNMINNDLGP, the “A24: average IFN-γ spots forming cells per million splenocytes” value in assay [1] is reported as “—”. Moreover, the “B7: average IFN-γ spots forming cells per million splenocytes” value in assay [2] was “—”. Moreover, in assay [3], the “DR2 … per million splenocytes” value was 159 ± 53(0.1) IFN-γ spots forming cells per million splenocytes and the “DR2: lowest concentration” value was 159 ± 53(0.1) μg/ml. In assay [4], the “DR3 … per million splenocytes” value was “—”. Besides, the “DR4 … per million splenocytes” value in assay [5] is “—”.

On to LTHIMIWHSNLNDTTYQ, for which, in assay [1], the “A24: average IFN-γ spots forming cells per million splenocytes” value is recorded as “—”. Further, the “B7: average IFN-γ spots forming cells per million splenocytes” value in assay [2] is recorded as “—”. In assay [3], the “DR2 … per million splenocytes” value was 238 ± 59(0.1) IFN-γ spots forming cells per million splenocytes and the “DR2: lowest concentration” value is recorded as 238 ± 59(0.1) μg/ml. Further, the “DR3 … per million splenocytes” value in assay [4] is “—”. The “DR4 … per million splenocytes” value in assay [5] is “—”.

Take NDLGPATAQMALQLFIK: in assay [1], the “A24: average IFN-γ spots forming cells per million splenocytes” value is 92 ± 2(1) IFN-γ spots forming cells per million splenocytes and the “A24: lowest concentration” value is 92 ± 2(1) μg/ml. Besides, in assay [2], the “B7: average IFN-γ spots forming cells per million splenocytes” value was “—”. In addition, the “DR2 … per million splenocytes” value in assay [3] is “—”. For the same sequence, the “DR3 … per million splenocytes” value in assay [4] is recorded as “—”. Besides, the “DR4 … per million splenocytes” value in assay [5] is recorded as “—”.

RFYRTCKLLGINMSKKK: the “A24: average IFN-γ spots forming cells per million splenocytes” value in assay [1] is reported as “—”. In assay [2], the “B7: average IFN-γ spots forming cells per million splenocytes” value is listed as “—”. For the same sequence, in assay [3], the “DR2 … per million splenocytes” value was 231 ± 73(1) IFN-γ spots forming cells per million splenocytes and the “DR2: lowest concentration” value is on record as 231 ± 73(1) μg/ml. For the same sequence, the “DR3 … per million splenocytes” value in assay [4] was “—”. Also, the “DR4 … per million splenocytes” value in assay [5] is recorded as “—”.

On to MELPSFGVSGVNESADM, for which the “A24: average IFN-γ spots forming cells per million splenocytes” value in assay [1] was “—”. In addition, the “B7: average IFN-γ spots forming cells per million splenocytes” value in assay [2] is “—”. Moreover, the “DR2 … per million splenocytes” value in assay [3] is reported as “—”. Besides, the “DR3 … per million splenocytes” value in assay [4] is “—”. In addition, the “DR4 … per million splenocytes” value in assay [5] is listed as 274 ± 15(0.1) IFN-γ spots forming cells per million splenocytes.

Consider RMIGGIGRFYIQMCTEL, for which, in assay [1], the “A24: average IFN-γ spots forming cells per million splenocytes” value is 45 ± 5 IFN-γ spots forming cells per million splenocytes and the “A24: lowest concentration” value is “(0.1) μg/ml”. The “B7: average IFN-γ spots forming cells per million splenocytes” value in assay [2] is “—”. For the same sequence, the “DR2 … per million splenocytes” value in assay [3] was “—”. The “DR3 … per million splenocytes” value in assay [4] is given as “—”. For the same sequence, the “DR4 … per million splenocytes” value in assay [5] is “—”.

Regarding ESKSMKLRTQIPAEMLA, the “A24: average IFN-γ spots forming cells per million splenocytes” value in assay [1] is “—”. The “B7: average IFN-γ spots forming cells per million splenocytes” value in assay [2] is listed as “—”. Besides, in assay [3], the “DR2 … per million splenocytes” value is 84 ± 20(0.1) IFN-γ spots forming cells per million splenocytes and the “DR2: lowest concentration” value was 84 ± 20(0.1) μg/ml. In addition, the “DR3 … per million splenocytes” value in assay [4] is listed as “—”. Moreover, in assay [5], the “DR4 … per million splenocytes” value was “—”.

On to KYPITADKRITEMIPER, for which the “A24: average IFN-γ spots forming cells per million splenocytes” value in assay [1] is “—”. Besides, in assay [2], the “B7: average IFN-γ spots forming cells per million splenocytes” value is reported as “—”. In assay [3], the “DR2 … per million splenocytes” value is “—”. In assay [4], the “DR3 … per million splenocytes” value is listed as 499 ± 4(0.1) IFN-γ spots forming cells per million splenocytes and the “DR3: lowest concentration” value is listed as 499 ± 4(0.1) μg/ml. The “DR4 … per million splenocytes” value in assay [5] is given as “—”.

Consider LEKANKIKSEKTHIHIF, for which the “A24: average IFN-γ spots forming cells per million splenocytes” value in assay [1] is “—”. Also, in assay [2], the “B7: average IFN-γ spots forming cells per million splenocytes” value is given as “—”. Besides, in assay [3], the “DR2 … per million splenocytes” value is recorded as “—”. In assay [4], the “DR3 … per million splenocytes” value is given as “—”. For the same sequence, the “DR4 … per million splenocytes” value in assay [5] was 41 ± 10(0.1) IFN-γ spots forming cells per million splenocytes.

With GPAKNMEYDAVATTHSW, in assay [1], the “A24: average IFN-γ spots forming cells per million splenocytes” value is given as “—”. Also, the “B7: average IFN-γ spots forming cells per million splenocytes” value in assay [2] is on record as “—”. In addition, the “DR2 … per million splenocytes” value in assay [3] is “—”. Further, in assay [4], the “DR3 … per million splenocytes” value was 142 ± 45(0.1) IFN-γ spots forming cells per million splenocytes and the “DR3: lowest concentration” value is 142 ± 45(0.1) μg/ml. Besides, the “DR4 … per million splenocytes” value in assay [5] was 41 ± 9(0.1) IFN-γ spots forming cells per million splenocytes.

As for KWVRELVLYDKEEIRRI, in assay [1], the “A24: average IFN-γ spots forming cells per million splenocytes” value is “—”. Further, the “B7: average IFN-γ spots forming cells per million splenocytes” value in assay [2] is on record as “—”. Further, the “DR2 … per million splenocytes” value in assay [3] is recorded as “—”. In assay [4], the “DR3 … per million splenocytes” value is reported as 614 ± 21(0.1) IFN-γ spots forming cells per million splenocytes and the “DR3: lowest concentration” value is 614 ± 21(0.1) μg/ml. In addition, the “DR4 … per million splenocytes” value in assay [5] is listed as “—”.
